Article PMC12769565, “Design, synthesis and biological activity of glycoconjugated ADAMTS5 exosite inhibitors: applications in osteoarthritis and ovarian cancer models” (Scientific Reports, 2025)

Legend:
A2780-Rab25 = assay: OC cell proliferation (DRAQ5 cell numbers); format: cell-based; details: 24 h
Description: A2780-Rab25 (3,000 cells per well) were seeded in a 96-well plate and incubated with compound 2 (10 µM and 50 µM) or DMSO control for 24 h. Cells were fixed with 4% paraformaldehyde and stained with 5 µM DRAQ5 in PBS for 1 h at room temperature with gentle rocking. Cells were washed twice with PBS for 30 min and kept in PBS for imaging. […] was detected by the 700 nm channel (200 μm resolution) of a Licor Odyssey Sa instrument. The signal intensity (total intensity minus total background) of each well was quantified in Image Studio Lite software.

HEK293T cells = assay: Cell viability MTS assay; format: cell-based, human; details: 100 µM; 72 h; vs DMSO control
Description: (§1) Cell viability was assessed using CellTiter® 96 Aqueous One Solution Cell Proliferation Assay (Promega, G3582) following the manufacturer’s protocol. The assay is based on the reduction of [3-(4,5-dimethylthiazol-2-yl)-5-(3-carboxymethoxyphenyl)-2-(4-sulfophenyl)-2 H-tetrazolium] (MTS) and phenazine ethosulfate into formazan. Compounds 2 and 4b, GM6001 (Merck, 364206) (10–100 µM), or DMSO control were incubated in 48-well Nunc™ plates (Thermo Fisher Scientific,150687) with HEK293T cells, human non-OA chondrocytes, porcine cartilage explants, or human OA cartilage explants for 72 h. At least 3 independent experiments were carried out with 3 technical replicates each. For experiments involving human samples, independent experiments were carried out on 3 different donors. Absorbance at 490 nm was measured on a SpectraMax i3x Multi-Mode Platform (Molecular Devices). Cell viability was normalized to DMSO controls.

[1] = tested on: human OA cartilage explants; assay: Cell viability MTS assay; format: cell-based; details: 100 µM; 72 h; vs DMSO control
Description: Human OA cartilage was obtained from Clatterbridge Hospital, Wirral, UK, following total knee arthroplasty procedures with informed patient consent in full compliance with national and institutional ethical requirements, the United Kingdom Human Tissue Act, and the Declaration of Helsinki (REC 18/WA/0344). Explants (~ 36 mm^3, ~ 40 mg wet volume/weight) from each of 3 donors were placed in one well of a 48-well plate and allowed to rest for 24 h in 1 ml of DMEM containing 10% FBS before use. The medium was replaced, and the cartilage was rested for a further 24 h in 1 ml DMEM at 37 °C before assays.
as §1, with “For experiments involving human samples, independent experiments were carried out on 3 different donors.” left out, “Cell viability was normalized to DMSO controls.” left out

ADAMTS5 = molecular target: T1, ADAMTS5 (Homo sapiens, UniProt Q9UNA0); assay: Aggrecanase assay (bovine aggrecan, anti-ARGSV neoepitope immunoblot); format: biochemical
T1 construct: Human recombinant full-length FLAG-tagged ADAMTS4 and ADAMTS5 were expressed in HEK293T cells; FLAG; made in house; host or cells: HEK293T cells
T1 sequence (Q9UNA0 262-930): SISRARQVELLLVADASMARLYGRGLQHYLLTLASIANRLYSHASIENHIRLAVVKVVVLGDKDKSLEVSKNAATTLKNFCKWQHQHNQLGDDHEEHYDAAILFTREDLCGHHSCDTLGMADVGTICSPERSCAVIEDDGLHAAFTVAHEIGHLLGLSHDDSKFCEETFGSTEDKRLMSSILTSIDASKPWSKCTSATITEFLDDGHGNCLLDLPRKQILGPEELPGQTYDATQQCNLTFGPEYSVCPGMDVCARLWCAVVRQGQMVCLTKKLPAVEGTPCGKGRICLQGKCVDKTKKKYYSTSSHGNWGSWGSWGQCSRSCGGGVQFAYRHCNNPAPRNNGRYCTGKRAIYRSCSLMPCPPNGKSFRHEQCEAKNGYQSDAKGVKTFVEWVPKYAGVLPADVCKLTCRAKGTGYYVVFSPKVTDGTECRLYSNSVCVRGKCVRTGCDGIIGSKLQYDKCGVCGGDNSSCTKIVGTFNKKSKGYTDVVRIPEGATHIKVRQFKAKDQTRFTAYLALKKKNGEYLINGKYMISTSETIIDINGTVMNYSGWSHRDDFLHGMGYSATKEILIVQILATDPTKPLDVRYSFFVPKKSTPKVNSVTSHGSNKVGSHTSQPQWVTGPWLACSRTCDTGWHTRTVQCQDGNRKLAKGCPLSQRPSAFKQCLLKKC
Description: Aggrecanase assays were carried out as before. ADAMTS5 (1 nM) was incubated with compounds 2 and 3 or DMSO for 2 h at 37 °C in TNC-B buffer before addition of bovine articular aggrecan (UniProt ID: P13608, 270 nM) (Merck, A1960). After 2 h digestion at 37 °C, the reactions were stopped with ethylenediaminetetraacetic acid and the samples incubated with 0.1 U/ml of chondroitinase ABC (AMS Biotechnology, Abingdon, UK) and keratanase (endo-beta galactosidase, Merck, G6920) in deglycosylation buffer (50 mM sodium acetate, 25 mM Tris HCl pH 8.0) for 16 h at 37 °C to remove GAG chains.
Samples were separated by SDS-PAGE under reducing conditions (5% β-mercaptoethanol) on BOLT, 4–12%, Bis-Tris Gels (Invitrogen) in MES Running Buffer (NuPAGE). Proteins were transferred onto a nitrocellulose membrane using Trans-Blot Turbo™ Transfer System (BioRad), at 25 V, 2.5 A for 30 min. Membranes were blocked with 3% BSA/PBS for 1 h at room temperature. Aggrecan fragments generated by ADAMTS cleavage at E^392-A^393[8] or E^1953-A^1954[68] were detected using mouse monoclonal anti-ARGSV antibody (BC3, Life Technologies, MA3-16888, 4 µg/ml) or polyclonal anti-AGEG neoepitope antibody (serum, 1:200 dilution)[12],[33], respectively, followed by the appropriate horseradish peroxidase (HRP)-conjugated secondary antibodies (polyclonal Goat Anti-Mouse P0447, 0.1 ng/µl and polyclonal Goat Anti-Rabbit, P0448, 0.03 ng/µl, both from Agilent Technologies LDA UK Ltd). All antibodies were diluted in 0.5% bovine serum albumin (BSA)/PBS. Washes between each step were carried out in triplicate, for 15 min each, with PBS-Tween (0.1%). Following addition of the chemiluminescent HRP substrate (Millipore, WBKL30500) membranes were imaged using Bio-Rad Chemidoc Touch Imaging System. Analysis was carried out using BioRad ImageLab software (version 5.2.1) using sequential exposures to avoid saturation artifacts. Figures for unprocessed blots are included in Supplementary information Fig. S4 and Fig. S5 with highlighted regions (in red boxes) corresponding to the data reported in the main manuscript figures.

Question: Which results are given for `CCC(C)N(Cc1cn(CCCO[C@@H]2O[C@H](CO)[C@@H](O[C@@H]3O[C@H](CO)[C@H](O)[C@H](O)[C@H]3O)[C@H](O)[C@H]2NC(C)=O)nn1)S(=O)(=O)c1ccc(-c2ccccc2)cc1` (stereo partly drawn) [compound 2, N-((2R,3R,4R,5 S,6R)-2-(3-(4-((N-(sec-butyl)-[1,1’-biphenyl]-4-sulfonamido)methyl)-1H-1,2,3-triazol-1-yl)propoxy)-4-hydroxy-6-(hydroxymethyl)-5-(((2 S,3R,4 S,5R,6R)-3,4,5-trihydroxy-6-(hydroxymethyl)tetrahydro-2 H-pyran-2-yl)oxy)tetrahydro-2 H-pyran-3-yl)acetamide]?
Answer: A2780-Rab25 cell numbers compared to DMSO control (A2780-Rab25; 10 µM): did not detect any significant difference; A2780-Rab25 cell numbers compared to DMSO control (A2780-Rab25; 50 µM): did not detect any significant difference; inhibition of cell viability (HEK293T cells): Neither 2, nor the broad-spectrum zinc-chelating metalloproteinase inhibitor GM6001[40] had an effect on cell viability; effect on cell viability [1]: no effect on cell viability was observed; inhibition at 10 µM (ADAMTS5; 10 µM): 53%; inhibition at 100 µM (ADAMTS5; 100 µM): 80%
